“Also recorded” adds a separate entry of the source.
Key:
[1] = tested on: Caki-1 renal cell carcinoma cells; experiment: Viability of Caki-1 renal cell carcinoma cells after treatment; type: cell-based; conditions: 24 hours
[2] = tested on: NFKB reporter in THP1-Dual cells; experiment: NFKB reporter activity in THP1-Dual monocytes co-cultured with treated Caki-1 cells; type: cell-based, human
Protocol: Caki-1 renal cell carcinoma cells were treated with either control (DMSO) or various doses of Erastin, for 24 hours prior to co-culture with THP1-Dual cells for an additional 24 hours. Erastin was purchased from Selleckchem (Houston, Tex.) and dissolved in DMSO. Subsequently, the THP1 supernatants were assessed for NFKB or IRF reporter activity. Caki-1 cells were acquired from ATCC and THP1-Dual cells acquired from InvivoGen (San Diego, Calif.). Both cell types were cultured in 96-well plates for the duration of the assay. 7,500 Caki-1 cells were plated 24 hours prior to dosing with Erastin, with a final DMSO concentration of 0.5%. 24 hours post-treatment, THP1-Dual cells (25,000 cells/well) were added to the Caki-1 cells. 24 hours later, 30 μl of supernatant was mixed with either 200 μl QuantiBlue (InvivoGen) or 50 μl QuantiLuc and absorbance or luminescence was recorded on a Molecular Devices plate reader. Caki-1 renal cell carcinoma cells were treated with either control (DMSO) or various doses of RSL3, for 24 hours prior to co-culture with THP1-Dual cells for an additional 24 hours. RSL3 was purchased from Selleckchem and dissolved in DMSO. Subsequently, the THP1 supernatants were assessed for NFKB or IRF reporter activity. Caki-1 cells were acquired from ATCC and THP1-Dual cells acquired from InvivoGen (San Diego, Calif.). Both cell types were cultured in 96-well plates for the duration of the assay. 7,500 Caki-1 cells were plated 24 hours prior to dosing with RSL3, with a final DMSO concentration of 0.5%. 24 hours post-treatment, THP1-Dual cells (25,000 cells/well) were added to the Caki-1 cells. 24 hours later, 30 μl of supernatant was mixed with either 200 μl QuantiBlue (InvivoGen, San Diego, Calif.) or 50 μl QuantiLuc and absorbance or luminescence was recorded on a Molecular Devices plate reader. […] Subsequently, the THP1 supernatant was assessed for NFKB reporter activity. Caki-1 cells were acquired from ATCC and THP1-Dual cells acquired from InvivoGen (San Diego, Calif.). Both cell types were cultured in 96-well plates for the duration of the assay.

[3] = tested on: NFKB reporter in THP1-Dual cells; experiment: NFKB reporter activity in THP1-Dual monocytes co-cultured with treated Jurkat cells; type: cell-based, human; conditions: Jurkat cells treated 24 hours, co-culture 24 hours; vs DMSO; FIG. 5B
Protocol: Jurkat T cell leukemia cells were treated with either control (DMSO) or various doses of RSL3, for 24 hours prior to co-culture with THP1-Dual cells for an additional 24 hours. RSL3 was purchased from Selleckchem (Houston, Tex.) and dissolved in DMSO. Subsequently, the THP1 supernatants were assessed for NFKB or IRF reporter activity.
Jurkat cells were acquired from ATCC and THP1-Dual cells acquired from InvivoGen (San Diego, Calif.). Both cell types were cultured in 96-well plates for the duration of the assay. 100,000 Jurkat cells were plated 24 hours prior to dosing with RSL3, with a final DMSO concentration of 0.5%. 24 hours post-treatment, THP1-Dual cells (25,000 cells/well) were added to the Jurkat cells. 24 hours later, 30 μl of supernatant was mixed with either 200 μl QuantiBlue (InvivoGen, San Diego, Calif.) or 50 μl QuantiLuc and absorbance or luminescence was recorded on a Molecular Devices plate reader.

[4] = tested on: IRF reporter in THP1-Dual cells; experiment: IRF reporter activity in THP1-Dual monocytes co-cultured with treated A20 cells; type: cell-based, human; conditions: A20 cells treated 24 hours, co-culture 24 hours; vs DMSO; FIG. 6C
Protocol: A20 B-cell leukemia cells were treated with either control (DMSO) or various doses of RSL3, for 24 hours prior to co-culture with THP1-Dual cells for an additional 24 hours. RSL3 was purchased from Selleckchem (Houston, Tex.) and dissolved in DMSO. Subsequently, the THP1 supernatants were assessed for NFKB or IRF reporter activity. A20 cells were acquired from ATCC and THP1-Dual cells acquired from InvivoGen (San Diego, Calif.). Both cell types were cultured in 96-well plates for the duration of the assay. 50,000 A20 cells were plated 24 hours prior to dosing with RSL3, with a final DMSO concentration of 0.5%. 24 hours post-treatment, THP1-Dual cells (25,000 cells/well) were added to the A20 cells. 24 hours later, 30 μl of supernatant was mixed with either 200 μl QuantiBlue (InvivoGen, San Diego, Calif.) or 50 μl QuantiLuc and absorbance or luminescence was recorded on a Molecular Devices plate reader.

A375-DR cells = experiment: CellTiter-Glo 2.0 viability of dabrafenib-resistant melanoma cells; type: cell-based, human; conditions: graded concentrations, 72 hours; vs non-resistant parental cell line; FIG. 16A
Protocol: (§1) The effects of the ferroptosis inducer RSL3 on cancer cell lines with acquired resistance to standard of care therapeutics was assessed in vitro. Human melanoma cell lines with acquired resistance to BRAF inhibitors (A375-DR or A375-VR) were generated by propagating parental A375 cells in increasing concentrations of dabrafenib or vemurafenib (10 nM-100 μM) over 8 weeks. These resistant melanoma cell lines were further maintained in growth medium containing 5 μM dabrafenib or vemurafenib. BT-474 Clone 5, a human breast cancer cell line that is resistant to trastuzumab, was purchased from American Type Culture Collection (ATCC). 5,000 A375-DR, A375-VR, or BT-474 clone 5 cells were plated per well in flat-bottom 96 well plates and incubated overnight. Cells were then dosed with graded concentrations of RSL3 for 72 hours, and cellular viability was assessed using the CellTiter-Glo 2.0 Cell Viability Assay. The experiments were run in triplicate.

A375-VR cells = experiment: CellTiter-Glo 2.0 viability of vemurafenib-resistant melanoma cells; type: cell-based, human; conditions: graded concentrations, 72 hours; vs non-resistant parental cell line; FIG. 16B
Protocol: as §1

BT-474 Clone 5 cells = experiment: CellTiter-Glo 2.0 viability of trastuzumab-resistant breast cancer cells; type: cell-based, human; conditions: graded concentrations, 72 hours; vs non-resistant parental cell line; FIG. 16C
Protocol: as §1

COC(=O)c1ccc([C@H]2c3[nH]c4ccccc4c3C[C@H](C(=O)OC)N2C(=O)CCl)cc1 [RSL3]
viability of Caki-1 renal carcinoma cells, dose dependence ([1]; GPX4 inhibitor various doses, FIG. 13A, 14A): decreased viability of the cells in a dose dependent manner | viability of Caki-1 cells ([1]; various doses, FIG. 3A, 4A): negatively affected the viability | NFKB signaling in THP1 monocytes ([2]; Caki-1 cells treated 24 hours, co-culture 24 hours, vs DMSO, FIG. 3B, 4B): elicited NFKB signaling in THP1 monocytes | NFKB activity in THP1 cells, dose dependence ([2]; Caki-1 cells treated with RSL3 or ML162, FIG. 13B, 14B): increased NFKB activity in THP1 cells in a dose dependent manner | NFKB signaling in THP1 monocytes [3]: elicited NFKB signaling in THP1 monocytes | IRF signaling in THP1 monocytes [4]: elicited | sensitivity of A375-DR cells to RSL3-induced ferroptosis (cellular viability) (A375-DR cells): sensitive to RSL3-induced ferroptosis; also recorded: more sensitive to RSL3-induced ferroptosis than the corresponding non-resistant parental cell line | sensitivity of A375-VR cells to RSL3-induced ferroptosis (cellular viability) (A375-VR cells): sensitive to RSL3-induced ferroptosis; also recorded: more sensitive to RSL3-induced ferroptosis than the corresponding non-resistant parental cell line | sensitivity of BT-474 clone 5 cells to RSL3-induced ferroptosis (cellular viability) (BT-474 Clone 5 cells): sensitive to RSL3-induced ferroptosis; also recorded: more sensitive to RSL3-induced ferroptosis than the corresponding non-resistant parental cell line

— US20230114107A1, “COMBINATION ANTI-CANCER THERAPIES WITH INDUCERS OF IRON-DEPENDENT CELLULAR DISASSEMBLY” (Flagship Pioneering Innovations V, Inc., priority 2019, published 2023)
